The values that follow come from PMC12436592 (Nature Communications, 2025).

The assay addresses T1, hP2X7R (Homo sapiens, UniProt Q99572).
T1 sequence (Q99572 1-595): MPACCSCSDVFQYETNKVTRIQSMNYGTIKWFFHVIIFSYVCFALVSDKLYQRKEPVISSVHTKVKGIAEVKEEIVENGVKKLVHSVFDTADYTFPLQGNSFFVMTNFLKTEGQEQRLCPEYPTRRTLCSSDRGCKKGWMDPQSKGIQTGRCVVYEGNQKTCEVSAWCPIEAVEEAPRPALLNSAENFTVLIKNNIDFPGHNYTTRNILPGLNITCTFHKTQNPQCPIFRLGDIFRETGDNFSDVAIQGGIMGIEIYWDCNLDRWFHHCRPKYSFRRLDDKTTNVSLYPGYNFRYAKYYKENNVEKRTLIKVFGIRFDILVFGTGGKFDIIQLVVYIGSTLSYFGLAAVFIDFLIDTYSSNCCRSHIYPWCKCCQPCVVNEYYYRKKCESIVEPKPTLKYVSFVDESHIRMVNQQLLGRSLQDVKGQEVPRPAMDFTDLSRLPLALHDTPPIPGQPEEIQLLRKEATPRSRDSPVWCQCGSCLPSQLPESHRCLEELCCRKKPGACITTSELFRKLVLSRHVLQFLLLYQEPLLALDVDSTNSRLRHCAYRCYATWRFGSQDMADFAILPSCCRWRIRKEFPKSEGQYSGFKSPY
The assay can be described thus: Ethidium bromide accumulation in hP2X7R-expressing HEK293 cells. In kind it is cell-based. Also noted: expressed in transfected cells. Conditions: for ΔΔGexp: relative to UB-ALT-P30, from experimental pIC50 values, T = 298 K; for MAX100 (% of maximum accumulation, replicates 1-3): single replicates. On the procedure:
Human P2X7R-expressing HEK293 cells were cultured in a humidified atmosphere of 5% CO2 at 37 °C in Dulbecco’s Modification of Eagle’s Medium (DMEM; Corning) supplemented with 10% (v/v) fetal bovine serum (Corning) and 1% (v/v) antibiotic–antimycotic (Gibco)[75]. To perform the assay, the DMEM was removed, and the HEK293 cells were washed with 3 mL of 1X DPBS (Dulbecco’s Phosphate-Buffered Saline; Corning). After the removal of DPBS solution, the cells were detached from the dish with 1 mL of trypsin/EDTA (Gibco), and the cells were collected by centrifugation. The cells (density of 2.25 × 10^7) were re-suspended in 4-(2-hydroxyethyl)-1-piperazineethanesulfonic acid (HEPES)-buffered salt solution consisting of 140 mM potassium chloride, 1 mM ethylene diamine tetraacetic acid (EDTA), 5 mM glucose, 20 mM HEPES, and 0.1 mM ethidium bromide (pH 7.4). The vehicles or appropriate range of concentrations of compounds (10 μL, pre-diluted in 10% (v/v) DMSO in DW from 10 mM stock) were added to each well of 96-well black plate (Corning), and 80 μL of the cell suspension was subsequently added to each well. BzATP (10 μL, pre-diluted in DW from 10 mM stock) was then added, and the final assay volume was maintained at 100 μL. After the incubation in 5% CO2 at 37 °C for 2 h, the ethidium dye uptake was detected by measuring the fluorescence (excitation wavelength of 530 nm and emission wavelength of 590 nm) of each well using a CHAMELEON™ Multi-Technology Plate Reader. The antagonistic activities of compounds are expressed as the percentages relative to the maximum accumulation of ethidium bromide observed in the control group with the stimulation of the hP2X7R by an agonist, BzATP. The IC50 values of compounds as antagonists were calculated using nonlinear regression analysis using OriginPro 9.1 software.

[1] abbreviates: BzATP 6 μM, antagonist concentration 1 (unit not given).
Where [2] appears, read: BzATP 6 μM, antagonist concentration 10 (unit not given).
Where [3] appears, read: BzATP 6 μM, antagonist concentration 50 (unit not given).
The mark [4] stands for this setting: BzATP 6 μM, antagonist concentration 100 (unit not given).
Where [5] appears, read: BzATP 6 μM, antagonist concentration 500 (unit not given).
[6] abbreviates: BzATP 6 μM, antagonist concentration 1000 (unit not given).
[7] abbreviates: BzATP 7 μM, antagonist concentration 0.1 (unit not given).
Setting [8] is: BzATP 7 μM, antagonist concentration 0.5 (unit not given).
The mark [9] stands for this setting: BzATP 7 μM, antagonist concentration 1 (unit not given).
The mark [10] stands for this setting: BzATP 7 μM, antagonist concentration 5 (unit not given).
Setting [11] is: BzATP 7 μM, antagonist concentration 10 (unit not given).
Setting [12] is: BzATP 7 μM, antagonist concentration 100 (unit not given).

Several values for one entry are separate records, joined by “and”; a condition that tells them apart may be missing. Equal entries are not always repeated.

Broadly, the IC50 is the concentration that gives 50% inhibition. The compound `O=C(NNc1ccccc1Cl)C12CC3CC(CC(C3)C1)C2` [UB-ALT-P30, reference compound] yielded a ΔΔGexp of 0 kJ/mol. Under setting [1], the “mean % of maximum accumulation” value was 94.223%; the “MAX100 (% of maximum accumulation, replicates 1-3)” value is 87.3374 and 88.4652 and 106.867. Besides, under setting [2], the “mean % of maximum accumulation” value amounted to 86.3844%; the “MAX100 (% of maximum accumulation, replicates 1-3)” value was 79.5317 and 91.4204 and 88.2012. Under setting [3], the “mean % of maximum accumulation” value is given as 53.8482%; the “MAX100 (% of maximum accumulation, replicates 1-3)” value is 46.9211 and 58.6273 and 55.9961. Further, under setting [4], the “mean % of maximum accumulation” value was found to be 26.7232%; the “MAX100 (% of maximum accumulation, replicates 1-3)” value was 22.0295 and 25.5481 and 32.5919. Under setting [5], the “mean % of maximum accumulation” value is given as 9.424%; the “MAX100 (% of maximum accumulation, replicates 1-3)” value is 9.107 and 5.6244 and 13.5397. For the same compound, under setting [6], the “mean % of maximum accumulation” value amounted to 9.144%; the “MAX100 (% of maximum accumulation, replicates 1-3)” value was 6.418 and 4.862 and 16.1509. The compound also returned an IC50 (hP2X7R, ethidium bromide accumulation, mean ± SD, triplicate) of 0.047 ± 0.004 µM.
`CC12CC3CC1(C)C1(C)CC3(C(=O)NNc3ccccc3Cl)CC21C` [UB-MBX-46] had a ΔΔGexp of -9.92 ± 1.34 kJ/mol. Moreover, under setting [7], the “mean % of maximum accumulation” value is 86.0633%; the “MAX100 (% of maximum accumulation, replicates 1-3)” value was 84.5638 and 89.1729 and 84.4531. Under setting [8], the “mean % of maximum accumulation” value stood at 74.1428%; the “MAX100 (% of maximum accumulation, replicates 1-3)” value is 75.8389 and 73.3083 and 73.2812. Under setting [9], the “mean % of maximum accumulation” value is reported as 59.2287%; the “MAX100 (% of maximum accumulation, replicates 1-3)” value is 53.915 and 63.4586 and 60.3125. For the same compound, under setting [10], the “mean % of maximum accumulation” value came out at 27.1109%; the “MAX100 (% of maximum accumulation, replicates 1-3)” value is 28.9336 and 34.5865 and 17.8125. Moreover, under setting [11], the “mean % of maximum accumulation” value came out at 10.5059%; the “MAX100 (% of maximum accumulation, replicates 1-3)” value is 10.962 and 9.774 and 10.7812. Moreover, under setting [12], the “mean % of maximum accumulation” value is 11.5505%; the “MAX100 (% of maximum accumulation, replicates 1-3)” value is 12.4534 and 11.7293 and 10.4688.
